The subject of test [1] is Drosophila melanogaster flies of the Oregon wild-type strain. As to the kind of experiment: Adult fly mortality screen, wild-type flies. The test is classed as in vivo. The note with it: 100 ppm in 10% sucrose via cotton wick, 72 hours post-treatment. How it is done: (§1) Ten adult Drosophila melanogaster flies (5 males and 5 females) of the Oregon wild-type strain and ten adult flies of a spinosyn-resistant strain were used per treatment. Two sets (of 10 flies) were set-up per treatment. Stocks of spinosyn A and a 21-butenyl-spinosyn analog were formulated at 1000 ppm in 2:1 acetone:water and then diluted to the required concentration in 10% sucrose. Vials received 500 ul of treatment (or solvent for controls) via cotton wicks (approximately ¼ inch) and flies were added to each vial and capped with a cotton plug. Flies were monitored over 72 hours post-treatment while being maintained at room-temperature with a 12:12 light:dark cycle.
(§2) In addition, the spinosyn A resistant flies were >100-fold resistant (based on LD50) to the new class of spinosyns, represented by the 21-butenyl spinosyns.

The test system of test [2] is Drosophila melanogaster flies of a spinosyn-resistant strain. As to the kind of experiment: Adult fly mortality screen, spinosyn-resistant flies. The test is classed as in vivo. How it is done:
as §1, §2

In test [3] the test system is Dα6 and C. elegans ric3 expressed in D.Mel-2 cells. As to the kind of experiment: [3H]DHSA radioligand displacement binding in D.Mel-2 cells. Details: species or system Drosophila melanogaster. As for the experimental part: D.Mel-2 cells were seeded into 75 cm^2 flasks at 1.9×10^7 cells/flask in Drosophila SFM containing antibiotic/antimicotic and incubated overnight at 27° C. The transfection mix was prepared in 12×75 mm polystyrene tubes by mixing 1630 μl sterile water, 40 μg pIB/V5-HisA/ric3, 40 μg pIB/V5-HisA/30D and 250 μl CellFectin. The reagents were mixed gently and incubated at room temp for 15 minutes. While the transfection mix was incubating, the cells were washed with 10 ml fresh Drosophila SFM without antibiotics; this media was then removed from the cells and replaced with 6 ml fresh Drosophila SFM without antibiotics. To the transfection mix was added 4 ml Drosophila SFM without antibiotics and this was then transferred to the flask. The reagents were gently mixed by pipetting up and down and then incubated overnight at 27° C.
D.Mel-2 cells were purchased from Invitrogen (Carlsbad, Calif.) and grown in disposable 125 ml shake flasks using 50 ml volume. Cells were subcultured to 3×10^5 cells/ml twice per week in Drosophila SFM containing 5 ml/L Antibiotic-Antimycotic (100×) (Gibco, Carlsbad, Calif.). D.Mel-2 cells were seeded into a 12-well plate at a cell density of 5×10^5 cells/well and incubated overnight at 27° C. In a 12×75 mm polystyrene tube 6 μg pIB/V5-HisA/ric3, 82 μl sterile H2O and 12 μl CellFectin (Invitrogen, Carlsbad, Calif.) were added. The sample was mixed gently and incubated at room temperature for 15 minutes. While the transfection mix was incubating, media from one well of cells was removed and replaced with 1 ml fresh media without antibiotics. After 15 minutes, the media was removed from cells. To this transfection mix, 0.5 ml media (no antibiotics) was added. This solution was then added to the cells. The mixture was incubated for 48 hrs at 27° C. After 48 hrs, the cells were scraped from the plate using a cell scraper and split into 4 wells of a 6-well plate each containing 2 ml Drosophila SFM with antibiotics. Cells were allowed to attach for 1 hr at 27° C.; the media was removed and replaced with 2 ml fresh media containing 25 μg/ml Blasticidin S (Invitrogen, Carlsbad, Calif.). Cells were incubated at 27° C. for 5 days. After 5 days, the cells were scraped loose from the wells and combined into one tube. Cells were spun down at 600 rpm in a tabletop centrifuge; the media was removed and the cells were resuspended into a 50 ml shake culture in fresh Drosophila SFM containing 25 μg/ml Blasticidin S. The cells were incubated at 27° C./140 rpm. Cells were subcultured twice weekly back to cell density of 3×10^5 cells/ml. After 4 weeks the selection was cut back to 10 μg/ml Blasticidin S. After 3 months of growth under selection, a 12 well plate was seeded at 5×10^5 cells/well and cells were incubated over night at 27° C. The following reagents were added to each of three 12×75 mm polystyrene tubes: 2 μg pMT/V5-HisA/30D, 0.15 μg pCoHygro (Invitrogen, Carlsbad, Calif.) (a […] ratio of expression plasmid:selection plasmid), 89 μl sterile H2O and 12 μl CellFectin. The samples were mixed gently and incubated at room temp for 15 minutes and then transfected as described above. After 24 hrs, the media containing transfection mix was removed and replaced with 1 ml fresh media containing antibiotics. The incubation was continued at 27° C. for another 24 hrs. Cells were scraped loose from the 12-well plate (3 wells) and split into 2, 6-well plates. Cells were allowed to attach for 6 hours at which point, the media was replaced with 2 ml/well fresh media containing 200, 150, 100 or 50 μg/ml hygromycin B. The incubation was continued at 27° C.; every 4-5 days, the media was replaced with media containing hygromycin every 4-5 days. After 2 weeks of selection in the plates, the cells from the 200 μg/ml selection, were scraped loose and then gently pelleted and resuspended in 25 ml fresh media containing 200 μg/ml hygromycin B and then placed into a 125 ml shake flask.
For orientation: In a radioligand displacement assay an active substance lowers the binding of a labelled ligand.

Test [4] has as its system 30D (nicotinic acetylcholine receptor alpha-6 subunit). In kind it is cell-based, Drosophila melanogaster. As for the experimental part:
(§3) Xenopus laevis (Xenopus 1, Ann Arbor, Mich.; Nasco, Fort Atkinson, Wis.) were anesthetized by bathing in a solution of 2 g/l tricaine methane sulfonate, and oocytes were surgically removed from the frog and placed in a culture solution that consisted of 96 mM NaCl, 2 mM KCl, 1.8 mM CaCl2, 1 mM MgCl2, 5 mM HEPES, 2.5 mM Na-pyruvate, 100 units/ml penicillin, and 0.1 mg/ml streptomycin, pH 7.6. Oocytes were dispersed in a nominally zero Ca^2+ protease treatment solution to defolliculate the oocytes. The protease treatment solution consisted of either 88 mM NaCl, 2.5 mM KCl, 1 mM MgCl2, 5 mM HEPES, 2.5 mM Na-pyruvate, 100 units/ml penicillin, and 0.1 mg/ml streptomycin, pH 7.6 plus 1.5 mg/ml collagenase IA (Sigma Chemical Co., St. Louis, Mo.). After isolation, the oocytes were thoroughly rinsed and returned to the above Ca^2+ containing culture solution and stored at 18° C.
(§4) Synthesis of cRNA was performed as follows: Plasmid DNA was linearized with one of the following restriction enzymes; Not I, Xho I or Nhe I. The linearized DNA was subsequently used as template for cRNA synthesis using T7 mMessage mMachine kit (Ambion, Austin, Tex.) following the manufacturer's instructions.
(§5) Micropipettes for injection of cRNA into Xenopus oocytes were pulled on a DMZ-Universal Puller (Zeitz-Instruments, München, Germany). The cRNA to be injected was drawn up into the micropipette with negative pressure. Approximately 10-50 ng of cRNA was injected into the oocytes by applying positive pressure using a Nanoject II oocyte injector (Drummond Scientific Co., Broomall, Pa.). Nucleic acid was introduced into the oocytes as follows: (1) nicotinic acetylcholine receptor alpha-6 subunit subunit (30D) (2) nicotinic alpha-7 receptor subunit (34E); (3) nicotinic acetylcholine receptor alpha-6 subunit and C. elegans ric-3 (30D and ric-3); (4) nicotinic alpha-7 receptor subunit and C. elegans ric-3 (34E and ric-3); (5) nicotinic acetylcholine receptor alpha-6 subunit and nicotinic alpha-7 receptor subunit (30D and 34E); and, (6) nicotinic acetylcholine receptor alpha-6 subunit, nicotinic alpha-7 receptor subunit and C. elegans ric-3 (30D, 34E and ric-3).
(§6) The control external solution for voltage clamp recordings consisted of 88 mM NaCl, 1 mM KCl, 0.41 mM CaCl2, 2.4 mM NaHCO3, 0.3 mM Ca(NO3)2, 0.82 mM MgSO4·7 H2O, and 15 mM HEPES, pH 7.6. The recording chamber was continuously perfused with a gravity-fed perfusion system. Nicotine (1 mM) was added to the external solution and then added to the perfusate for 30 seconds. Then, nicotine was washed from the external solution a minimum of 10 minutes. Thereafter, spinosyn A was dissolved in dimethylsulfoxide (DMSO) and then dissolved in the external solution at a final concentration of 10 μM and then added to the perfusate for 60 seconds. Then, the spinosyn A was washed from the external solution. The final concentration of DMSO never exceeded 0.1% (v/v).

Test [5] deals with 30D/ric-3. The test is classed as cell-based, Drosophila melanogaster. The note with it: nicotine 1 mM for 30 seconds, −60 mV, peak current. As for the experimental part: as §3, §4, §5, §6
Test [6] has as its system 34E (nicotinic acetylcholine receptor alpha-5 subunit). The test is classed as cell-based, Drosophila melanogaster. How it is done: as §3, §4, §5, §6
Test [7] relates to 34E/ric-3. The test is classed as cell-based, Drosophila melanogaster. As for the experimental part: as §3, §4, §5, §6
Test [8] deals with 34E/30D/ric-3. In kind it is cell-based, Drosophila melanogaster. The arrangement: key to the marks not given beside the values. Conditions: nicotine 1 mM for 30 seconds, −60 mV, peak current. As for the experimental part:
as §3, §4, §5
as §6, with “Then, the spinosyn A was washed from the external solution. The final concentration of DMSO never exceeded 0.1% (v/v).” left out

Test [9] deals with 34E/30D. In kind it is cell-based, Drosophila melanogaster. The arrangement: key to the marks not given beside the values. Conditions: nicotine 1 mM for 30 seconds, −60 mV, peak current. As for the experimental part:
as §3, §4, §5
as §6, with “Then, the spinosyn A was washed from the external solution. The final concentration of DMSO never exceeded 0.1% (v/v).” left out

Test [10] relates to Dα6-nicotinic receptor. The test is classed as binding, Drosophila melanogaster.
Method: Xenopus oocytes were injected as previously described for the electrophysiological assay and were used intact for binding assays.
Two main radioligands were used in binding assays: the conventional α7 radioligand, [^3H]methyllycaconitine (MLA) and [^3H]dihydrospinosyn A (DHSA). For both radioligands, the Binding Buffer used consisted of 10 mM sodium phosphate (7.2-7.4). […] For Xenopus oocyte binding assays, oocytes were pooled (2-5 oocytes) and transferred to 1 ml Binding Buffer. This was followed by gently aspirating the Binding Buffer and replacing with fresh Binding Buffer twice, to wash out any residual oocyte bathing media. The final volume of buffer added to each pool of oocytes was 50-100 μl. […] Subsequent dilutions were made in Binding Buffer. The final concentration of solvent was maintained at less than 0.1% in each well. 25 μl of unlabeled competing compounds were added to the cell suspensions or oocytes. Cells or cell extracts were pre-incubated with compounds for 15-30 minutes, at 10° C. (for [^3H]DHSA) and room-temperature for [^3H]MLA. The samples were gently shaken using a plate shaker. […] Filter mats were dried in an oven at 60° C. and the radioactivity from samples was counted for three minutes with a Wallac MicroBeta Counter (Wallac, Conn.) using Meltilex solid-scintillant (PerkinElmer, Finland). […]
The mark [11] stands for this setting: D.Mel-2 cells expressing Dα6 and C. elegans ric3.

We go through 15 molecules from patent US20060269995A1, “Novel assays utilizing nicotinic acetylcholine receptor subunits” (priority 2005, published 2006).

Like-named read-outs stand apart in the source and are kept apart here. A value given as a limit tells only on which side of the number the result lay.

Regarding 21-butenyl spinosyn, the mortality entry in test [1] was “all wild-type flies exhibited mortality”; in test [2] (100 ppm in 10% sucrose via cotton wick, 72 hours post-treatment, spinosyn-resistant flies), “no significant mortality”. Further, the “resistance of spinosyn A resistant flies compared to wild-type flies (based on LD50)” value in [2] (dose-response data, LD50, resistant vs wild-type flies) is recorded as > 100 fold.

As to `CCN1C[C@]2(COC(=O)c3ccccc3N3C(=O)C[C@H](C)C3=O)CC[C@H](OC)[C@@]34[C@@H]5C[C@H]6[C@H](OC)[C@@H]5[C@](O)(C[C@@H]6OC)[C@@](O)([C@@H](OC)[C@H]23)[C@@H]14` [MLA, methyllycaconitine], the “displacement of [3H]DHSA binding” value in test [3] (setting [11]) is recorded as “can be demonstrated at higher concentrations”. Also, the “overall affinity for this receptor complex” value in test [3] ([3H]DHSA binding assay, D.Mel-2 cells) is “relatively poor”.

Regarding `CN1CCCC1c1cccnc1` (centres unmarked) [Nicotine, nicotine], the “Nicotine Response” value is listed as “−” in [4]; “+” in [5]; “+” in test [6]; “+” in test [7]; “++++” in [8]; “++” in test [9]. For the same molecule, the “% Displacement of Total Binding” value in test [10] is on record as 72%. The “displacement of [3H]DHSA binding” value in test [3] (setting [11]) was “displacement”.

As for `CN1[C@@H]2CC[C@H]1C[C@@H](OC(=O)C(CO)c1ccccc1)C2` (some centres unmarked) [atropine], the “displacement of [3H]DHSA binding” value in test [3] is “not”.

Take `C[N+](C)(C)CCOC(N)=O.[Cl-]` [carbamylcholine]: in test [3] (setting [11]), the “displacement of [3H]DHSA binding” value is given as “did not significantly displace”.

In the case of `CC[C@H]1CCC[C@H](O[C@H]2CC[C@H](N(C)C)[C@@H](C)O2)[C@@H](C)C(=O)C2=C[C@H]3[C@@H]4C[C@H](O[C@@H]5O[C@@H](C)[C@H](OC)[C@@H](OC)[C@H]5OC)C[C@H]4CC[C@H]3[C@@H]2CC(=O)O1` [dihydrospinosyn A], in test [3] (setting [11]), the “displacement of [3H]DHSA binding” value is on record as “significant displacement”.

With `Clc1ccc(C2CC3CCC2N3)cn1` (centres unmarked) [epibatidine], in test [3] (setting [11]), the “displacement of [3H]DHSA binding” value was “did not significantly displace”.

With `NS(=O)(=O)c1cc(C(=O)O)c(NCc2ccco2)cc1Cl` [furosemide], in test [3] (setting [11]), the “displacement of [3H]DHSA binding” value is given as “No significant displacement”.

`O=[N+]([O-])NC1=NCCN1Cc1ccc(Cl)nc1` [imidacloprid]: the “displacement of [3H]DHSA binding” value in test [3] (setting [11]) is “did not significantly displace”.

`CN1[C@@H](CC(=O)c2ccccc2)CCC[C@H]1C[C@H](O)c1ccccc1` [lobeline]: the “displacement of [3H]DHSA binding” value in test [3] (setting [11]) is recorded as “did not significantly displace”.

Consider `C[C@@H]1O[C@H](C[N+](C)(C)C)C[C@H]1O` [muscarine], for which, in [3] (setting [11]), the “displacement of [3H]DHSA binding” value was “not”.

With `CC[C@H]1CCC[C@H](O)[C@@H](C)C(=O)C2=C[C@@H]3[C@@H](C=C[C@@H]4C[C@@H](O[C@@H]5O[C@@H](C)[C@H](OC)[C@@H](OC)[C@H]5OC)C[C@@H]34)[C@@H]2CC(=O)O1` [pseudoagylcone of spinosyn A], the “displacement of [3H]DHSA binding” value in test [3] (setting [11]) is reported as “Nor was there significant displacement”.

Turning to `C[C@H](O)[C@H](O)[C@@H](O)[C@@H](O)C=O` [rhamnose], in test [3] (setting [11]), the “displacement of [3H]DHSA binding” value is on record as “No significant displacement”.

`CN1COCN(Cc2cnc(Cl)s2)/C1=N\[N+](=O)[O-]` [thiamethoxam]: the “displacement of [3H]DHSA binding” value in test [3] (setting [11]) was “did not significantly displace”.

With alpha-bungarotoxin, in test [3], the “displacement of [3H]DHSA binding” value is “can be demonstrated at higher concentrations” and the “overall affinity for this receptor complex” value is recorded as “relatively poor”.
